Source: ChEMBL document CHEMBL1201862, “PubChem BioAssay data set” (2004)
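Results reflect a 48-hour exposure of cells in 96-well plates to compound at five concentrations. Abbreviation: GI50, concentration required for 50% inhibition of growth.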 Activity calls are given as the source filed them. No stated cut-off is given here; in the data, active = GI50 up to about 1.1 µM and inactive = higher.

Columns and labels:
Assay in all cases: DTP human tumour cell line panel, 48 h
UO-31 = tested on: UO-31
SK-MEL-2 = tested on: SK-MEL-2
SN12C = tested on: SN12C
SF-268 = tested on: SF-268
OVCAR-3 = tested on: OVCAR-3
KM12 = tested on: KM12
SK-MEL-5 = tested on: SK-MEL-5
SW-620 = tested on: SW-620
OVCAR-5 = tested on: OVCAR-5
PC-3 = tested on: PC-3
NCI/ADR-RES = tested on: NCI/ADR-RES
HCT-15 = tested on: HCT-15
BT-549 = tested on: BT-549
MOLT-4 = tested on: MOLT-4
MDA-MB-231 = tested on: MDA-MB-231
CCRF-CEM = tested on: CCRF-CEM
NCI-H460 = tested on: NCI-H460
HOP-92 = tested on: HOP-92
HL-60 = tested on: HL-60
SR = tested on: SR

Measured: GI50

COc1ccc(/C=C2\N=C(SC)NC2=O)cc1
inactive: UO-31 21.2 µM | SK-MEL-2 > 100 µM | SN12C > 100 µM | SF-268 58.6 µM | OVCAR-3 > 100 µM | KM12 54.6 µM | SK-MEL-5 53.6 µM | SW-620 > 100 µM | OVCAR-5 > 100 µM | PC-3 67.1 µM | NCI/ADR-RES > 100 µM | BT-549 42.8 µM | MOLT-4 46.5 µM | MDA-MB-231 59.6 µM | CCRF-CEM 81.8 µM
89.7 µM: HCT-15

Cc1cc([N+](=O)[O-])c(C)c(Br)c1C
> 100 µM: HCT-15
inactive: UO-31 > 100 µM | SK-MEL-2 > 100 µM | SN12C > 100 µM | NCI-H460 > 100 µM | SF-268 > 100 µM | OVCAR-3 > 100 µM | KM12 > 100 µM | HOP-92 62.2 µM | SK-MEL-5 > 100 µM | SW-620 > 100 µM | OVCAR-5 > 100 µM | PC-3 > 100 µM | NCI/ADR-RES > 100 µM | BT-549 > 100 µM | MDA-MB-231 > 100 µM

N#CC1=C2Sc3ccccc3N2[C@H](c2ccccc2)[C@H]2COC(=O)[C@@H]12
> 100 µM: HCT-15
inactive: UO-31 > 100 µM | SK-MEL-2 48 µM | SF-268 17.1 µM | OVCAR-3 > 100 µM | KM12 63.2 µM | HOP-92 > 100 µM | SK-MEL-5 > 100 µM | SW-620 35.2 µM | OVCAR-5 > 100 µM | PC-3 > 100 µM | NCI/ADR-RES > 100 µM | BT-549 27.9 µM | MOLT-4 33.5 µM | MDA-MB-231 > 100 µM | CCRF-CEM 7.45 µM

CCOc1ncn(-c2ccc(NC(=S)NC34CC5CC(CC(C5)C3)C4)cc2)n1
> 100 µM: HCT-15
inactive: UO-31 > 100 µM | SN12C > 100 µM | NCI-H460 53.5 µM | SF-268 > 100 µM | OVCAR-3 > 100 µM | KM12 8.47 µM | HOP-92 25 µM | HL-60 > 100 µM | SK-MEL-5 58.5 µM | SW-620 > 100 µM | OVCAR-5 > 100 µM | PC-3 > 100 µM | SR > 100 µM | BT-549 > 100 µM | MOLT-4 > 100 µM | MDA-MB-231 76.4 µM | CCRF-CEM > 100 µM

COc1ccc(-c2csc(Cc3nc4c(Br)cc(Br)cc4c(=O)n3-c3ccc(OC)cc3)n2)cc1
inactive: UO-31 35.2 µM | SK-MEL-2 48 µM | NCI-H460 54 µM | OVCAR-3 > 100 µM | KM12 86.5 µM | HOP-92 > 100 µM | SK-MEL-5 20.3 µM | SW-620 67 µM | OVCAR-5 56.4 µM | PC-3 28.9 µM | NCI/ADR-RES 50.9 µM | BT-549 > 100 µM | MOLT-4 25.5 µM | MDA-MB-231 45.7 µM
24 µM: HCT-15
active: CCRF-CEM < 0.01 µM

CC(C(O)Cc1ccccc1)N(C)/N=N/c1ccc([N+](=O)[O-])cc1 (configuration not stated)
22.8 µM: HCT-15
inactive: UO-31 15.2 µM | SK-MEL-2 16.9 µM | SN12C 22 µM | NCI-H460 15.2 µM | SF-268 21 µM | OVCAR-3 14.8 µM | KM12 21.7 µM | HL-60 84.1 µM | SK-MEL-5 18.6 µM | SW-620 23.9 µM | OVCAR-5 25.5 µM | PC-3 18.3 µM | NCI/ADR-RES 18.8 µM | BT-549 19.6 µM | MOLT-4 18.2 µM | MDA-MB-231 14.6 µM | CCRF-CEM 29.6 µM

CC(/C=N\NC(=S)N(C)C)=N/NC(=S)N(C)C
active: UO-31 0.158 µM | SK-MEL-2 0.303 µM | SN12C 0.951 µM | NCI-H460 0.0412 µM | SF-268 0.251 µM | OVCAR-3 0.317 µM | SK-MEL-5 0.505 µM | SW-620 0.0832 µM | PC-3 0.577 µM | NCI/ADR-RES 0.202 µM | MOLT-4 0.0397 µM
0.07 µM: HCT-15
inactive: KM12 1.78 µM | HOP-92 1.84 µM | OVCAR-5 10.9 µM | BT-549 1.93 µM | MDA-MB-231 29 µM
